Experiments:
human CXCR3 (isoform 1) = target: T1, human CXCR3 (isoform 1) (Homo sapiens, UniProt P49682); assay: [125I]CXCL11 radioligand displacement assay; assay type: binding
T1 construct: expressed in transfected cells; host or cells: COS-7 cells, transient (pcDNA3.1+ vector, calcium phosphate)
T1 sequence (P49682 1-368): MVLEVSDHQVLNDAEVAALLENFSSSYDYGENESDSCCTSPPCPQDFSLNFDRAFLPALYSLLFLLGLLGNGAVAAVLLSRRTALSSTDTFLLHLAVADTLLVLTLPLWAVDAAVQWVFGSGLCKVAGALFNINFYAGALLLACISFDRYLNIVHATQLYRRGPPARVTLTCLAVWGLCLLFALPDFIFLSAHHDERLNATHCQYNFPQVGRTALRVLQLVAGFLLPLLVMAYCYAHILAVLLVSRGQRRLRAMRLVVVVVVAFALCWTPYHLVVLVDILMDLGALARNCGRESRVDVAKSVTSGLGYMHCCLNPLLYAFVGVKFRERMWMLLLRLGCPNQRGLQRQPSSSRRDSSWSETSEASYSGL
Procedure: [^125I]CXCL11 radioligand displacement assay: Oxidative iodination. The CXCL11 protein (purchased from PeproTech as the mature form of isoform 1) was labeled in-house with the ^125I isotope (purchased from Perkin-Elmer, in 10 µM NaOH, pH 8-11) using the Chloramine-T method^36. CXCL11 was dissolved in 300 mM phosphate buffer, and 0.4 mCi ^125I was added to 0.6 nmol (10 µl) of the protein. 30 µl phosphate buffer supplemented with 30 mgl^-1 Chloramine-T was added slowly over a 5 min period while stirring, and the reaction was quenched by adding 400 µl H2O with 0.1% trifluoroacetic acid (TFA). The product was purified by reverse-phase HPLC, using a C18 column and a gradient from H2O with 0.1% TFA (buffer A) to acetonitrile with 0.1% TFA (buffer B). After allowing the passage of 8 mL flow-through at 20 % buffer B, CXCL11 is eluted by increasing buffer B to 50 % over a flow-volume of 40 mL, after which any possible remains of protein are eluted by further increasing buffer B to 80 % across 10 mL flow-through. The flow-through is collected in 1 mL aliquots, and the radioligand is identified in those aliquots by gamma radiation intensity, and verified with a preliminary competitive binding assay setup.
Cell culture and transfection,. Cos-7 cells expressing human CXCR3 (isoform 1) were used for binding assays. […]

CXCR3-PK2 = target: T2, CXCR3-PK2 (Homo sapiens, UniProt P49682); assay: β-arrestin 2 recruitment assay (PathHunter, DiscoveRx), CXCR3-PK2 construct; assay type: cell-based; details: CXCR3-PK2; for CXCR3-PK2 pEC50 ± SEM: HEK293-T cells, PathHunter
T2 construct: expressed in transfected cells
T2 sequence (P49682 1-368): T1 sequence (P49682 1-368)
Procedure: (§1) β-arrestin 2 recruitment assay: The measurement of β-arrestin recruitment was performed utilizing the PathHunter assay purchased from DiscoveRx (DiscoveRx, Birmingham, U.K.) according to the manufacturer's protocol. HEK293 cells stably expressing β-gal enzyme acceptor were transiently transfected with the ProLink (PK1) tagged wildtype CXCR3 receptor using the TransIT-293 transfection reagent from Mirus (purchased from MoBiTec, Goettingen, Germany). The assay was carried out in 384-well plates containing 2000 cells in 20 µL. After incubation at 37°C (5% CO2, 95% relative humidity) overnight, various concentrations of test compounds or CXCL11 (prepared in PBS, pH 7.4, containing 0.20% BSA) were added and the incubation continued for 4 h. Detection mix was then added and incubated for further 60 min at room temperature. Chemiluminescence was determined with a microplate reader Clariostar (BMG labtech, Ortenberg, Germany).
The ability of the novel ligands according to the present invention to induce CXCR3-mediated β-arrestin 2 recruitment was investigated in the assay system PathHunter (DiscoveRx), which detects the recruitment of β-amestin 2 to the activated receptor using β-galactosidase (β-gal) enzyme fragment complementation. The inventors used two different ProLink tags, ProLink1 (PK1) and ProLink2 (PK2), of which PK2 has higher affinity for the enzyme acceptor to detect weak protein-protein interactions. The CXCR3-PK2 construct is readily able to detect the differences in the propensity of CXCL11 and CXCL10 to induce β-arrestin 2 recruitment at CXCR3. […] Table 3. Ability of the 46/VUF10661 based positive allosteric modulators to activate the CXCR3 as measured in the β-arrestin 2 recruitment assay (PathHunter, DiscoveRx).[a]
To investigate the efficacy of identified partial agonists in the assay format, the inventors used the CXCR3-PK2 construct, which is characterized by higher sensitivity to detect β-arrestin 2 recruitment. The compounds which appeared as weak partial agonists under CXCR3-PK1 conditions appeared as strong partial agonists under CXCR3-PK2 conditions with the efficacy increased up to 80% (Table 4). FAUC1036 reached the efficacy of 66%. […] Table 4. Ability of the compound 5 based positive allosteric modulators to activate the CXCR3 as measured in the β-arrestin 2 recruitment assay (PathHunter, DiscoveRx).[a]

CXCR3 = target: T3, CXCR3 (Homo sapiens, UniProt P49682); assay: β-arrestin 2 recruitment with concomitant incubation of FAUC1036 and chemokine; assay type: cell-based
T3 construct: expressed in transfected cells; host or cells: HEK293 / HEK293T cells, stably transfected; membrane preparations
T3 sequence (P49682 1-368): T1 sequence (P49682 1-368)
Procedure: as §1
The effect of the β-arrestin 2 biased allosteric agonist FAUC1036 on the CXCL11 and CXCL10-induced β-arrestin 2 recruitment was estimated in a series of experiments where the HEK293T cells expressing CXCR3 were concomitantly incubated with FAUC1036 and chemokines CXCL11 or CXCL10 (Figure 3). […] These observations imply that FAUC1036 behaves as a functional negative allosteric modulator (NAM) in the presence of endogenous agonists in the β-arrestin 2 pathway.

- CXCR3-PK2 efficacy (%) (CXCR3-PK2; % of CXCL11 mediated effect, listed as 11/FAUC103 6): 66±8%
- Emax (CXCR3-PK2; % of CXCL11 mediated effect, read-out: CXCR3-PK2 efficacy (%) (converted)): 66%
- CXCR3-PK2 pEC50 ± SEM (CXCR3-PK2; listed as 11/FAUC103 6): 6.58±0.30
- CXCR3-PK2 pEC50 ± SEM (CXCR3-PK2; listed as FAUC1036): 6.64 ± 0.30
- influence on the efficacy of CXCL10-induced β-arrestin 2 recruitment (CXCR3; in the presence of CXCL10 (Figure 3B)): noticeable effect on the efficacy
- influence on the efficacy of CXCL11-induced β-arrestin 2 recruitment (CXCR3; in the presence of CXCL11 (Figure 3A)): had not influence on the efficacy
SMILES: CC(C)(C)OC(=O)N[C@@H](CCCCNC(=O)[C@@H]1Cc2ccccc2CN1C(=O)CCC(=O)c1ccccc1)C(=O)NCC(c1ccccc1)c1ccccc1 [Compound 11, Tert-butyl ((S)-1-((2,2-diphenylethyl)amino)-1-oxo-6-((S)-2-(4-oxo-4-phenylbutanoyl)-1,2,3,4-tertahydroisoquinoline-3-carboxamido)hexan-2-yl)carbamate]
- effect on the binding affinity of CXCL11 on CXCR3 (human CXCR3 (isoform 1)): no effect on the binding affinity of CXCL11 on CXCR3

Reference: EP3156398A1, “AGONISTS OF THE CHEMOKINE RECEPTOR CXCR3” (Friedrich-Alexander-Universität Erlangen-Nürnberg, priority 2015, dated 2017)
